The values that follow come from patent US20130123494A1, “COMPLEX COMPOUND AND OPTICAL RECORDING MEDIUM CONTAINING SAME” (KH NEOCHEM CO., LTD., priority 2010, published 2013).

Format in all cases: physicochemical
Data set [1] can be described thus: Water resistance test of thin films. As to conditions: for I^d/I^d0 (absorbance ratio at absorption maximum after/before water resistance test) / Δλmax (d) (change in absorption maximum wavelength): thin film immersed in water at 75° C. for 30 minutes; for Water resistance of thin film (in words): thin film in water at 75° C. for 30 minutes. Here is the method:
Similarly to the film-forming test, thin films of Complex Compounds (2), (3), (13), (19), and (20) were respectively obtained. Ultraviolet-visible absorption spectra of the thin films were measured using a spectrophotometer before and after the water resistance test in which the thin films were immersed in water at 75° C. for 30 minutes. […] Here, the absorption maximum wavelength after the water resistance test denotes the absorption maximum wavelength in the absorption spectrum after the water resistance test. […] Here, the water resistance test is a test under severe conditions, and a thin film having the ratio (I^d/I^d0) of 0.5 or greater has favorable water resistance.

The nature of data set [2]: Test of storage stability in solution. Particulars: 13 mg in 1 mL TFP, brown bottle, 25° C., 3 days; 1250-fold diluted for measurement. Here is the method:
Each of 13 mg of Complex Compounds (2) to (5), (7), (9) to (11), (13) to (21), (24), (26), (28), (30), (31), and (33) was dissolved in 1 mL of TFP, which was filtered with a filter made of TEFLON (registered trademark) (manufactured by Whatman, having a pore diameter of 0.20 μm), and solutions of Complex Compounds (2) to (5), (7), (9) to (11), (13) to (21), (24), (26), (28), (30), (31), and (33) were respectively obtained. Each of the obtained solutions was transferred to a brown bottle with a lid and stored at 25° C. for 3 days. Before and after the storage stability test, using a spectrophotometer, 1250-fold diluted solutions of Complex Compounds (2) to (5), (7), (9) to (11), (13) to (21), (24), (26), (28), (30), (31), and (33), respectively, were measured for their ultraviolet-visible absorption spectra. […] Here, the absorption maximum wavelength after the storage stability test is the absorption maximum wavelength in the absorption spectrum after the storage stability test.

A short description of data set [3]: Lightfastness test of thin films. Particulars: thin film on glass plate, UV fluorescent lamps 15 W/m^2, 45° C., 10 hours. The source says:
Thin films of Complex Compounds (2) to (5), (7), (9) to (11), (13) to (21), (24), (26), (28), (30), (31), and (33) were respectively obtained similarly to the film-forming test except that a glass plate (manufactured by Taiyu Kizai Co., Ltd.; 2 cm×2 cm; thickness: 2 mm) was used as the substrates instead of the plate made of polycarbonate resin. Using a dewpanel light control weather meter DPWL-5R, manufactured by Suga Test Instruments Co., Ltd., which was equipped with ultraviolet fluorescent lamps (SUGA-FS40, manufactured by Suga Test Instruments Co., Ltd., having a peak wavelength of 313 nm and an illuminance distribution of 282 nm to 373 nm), light was irradiated on the thin films with an amount of light of 15 W/m^2 at 45° C. for 10 hours. Ultraviolet-visible absorption spectra of the thin film before and after the lightfastness test were measured using a spectrophotometer.
Here, the absorption maximum wavelength after lightfastness test denotes an absorption maximum wavelength in the absorption spectrum after the lightfastness test.

Data set [4] can be described thus: Moisture- and heat-resistances test of thin films. As to conditions: thin film, 80° C., relative humidity 80%, 100 hours. Here is the method: Similarly to the film-forming test, thin films of Complex Compounds (2) to (5), (7), (9) to (11), (13) to (21), (24), (26), (28), (30), (31), and (33) were respectively obtained. Using a constant temperature and humidity chamber, KHWII-40HP, manufactured by Satake Chemical Equipment Mfg Ltd., the thin films were exposed in the atmosphere having a temperature of 80° C. and a relative humidity of 80% for 100 hours. Ultraviolet-visible absorption spectra of the thin films before and after the moisture- and heat-resistances test were measured using a spectrophotometer. […] Here, the absorption maximum wavelength after the moisture- and heat-resistances test denotes the absorption maximum wavelength in an absorption spectrum after the moisture- and heat-resistances test.

Regarding `Cc1c(/C=N/[N-]c2nnnn2-c2ccccc2)c([O-])n(CC(C)C)c(=O)c1C#N.Cc1c(/C=N/[N-]c2nnnn2-c2ccccc2)c([O-])n(CC(C)C)c(=O)c1C#N.Cc1c(/C=N/[N-]c2nnnn2-c2ccccc2)c([O-])n(CC(C)C)c(=O)c1C#N.Cc1c(/C=N/[N-]c2nnnn2-c2ccccc2)c([O-])n(CC(C)C)c(=O)c1C#N.FC(F)(F)c1cccc(-[n+]2ccc(-c3cc[n+](-c4cccc(C(F)(F)F)c4)cc3)cc2)c1.[Co+3].[Co+3]` [Complex Compound (19)], in data set [1], the “I^d/I^d0 (absorbance ratio at absorption maximum after/before water resistance test)” value turned out to be 0.76, the “Δλmax (d) (change in absorption maximum wavelength)” value turned out to be 0 nm and the “Water resistance of thin film (in words)” value is on record as “superior water resistance”. In data set [2], the “I^c/I^c0 (absorbance ratio at absorption maximum after/before storage stability test)” value came to 0.99 and the “Δλmax(c) (change in absorption maximum wavelength)” value was determined as 0 nm. In addition, the “I^a/I^a0 (absorbance ratio at absorption maximum after/before lightfastness test)” value in data set [3] is reported as 0.85. In addition, in data set [4], the “I^b/I^b0 (absorbance ratio at absorption maximum after/before moisture- and heat-resistances test)” value was 0.99; the “Δλmax(b) (change in absorption maximum wavelength)” value is listed as 0 nm.

As to `Cc1c(/C=N/[N-]c2nnnn2-c2ccccc2)c([O-])n(CC(C)C)c(=O)c1C#N.Cc1c(/C=N/[N-]c2nnnn2-c2ccccc2)c([O-])n(CC(C)C)c(=O)c1C#N.Cc1c(/C=N/[N-]c2nnnn2-c2ccccc2)c([O-])n(CC(C)C)c(=O)c1C#N.Cc1c(/C=N/[N-]c2nnnn2-c2ccccc2)c([O-])n(CC(C)C)c(=O)c1C#N.Fc1ccc(-[n+]2ccc(-c3cc[n+](-c4ccc(F)cc4)cc3)cc2)cc1.[Co+3].[Co+3]` [Complex Compound (20)], in data set [1], the “I^d/I^d0 (absorbance ratio at absorption maximum after/before water resistance test)” value is listed as 0.59, the “Δλmax (d) (change in absorption maximum wavelength)” value is on record as 0.5 nm and the “Water resistance of thin film (in words)” value was “superior water resistance”. In data set [2], the “I^c/I^c0 (absorbance ratio at absorption maximum after/before storage stability test)” value was found to be 1.00 and the “Δλmax(c) (change in absorption maximum wavelength)” value amounted to 0.5 nm. In addition, the “I^a/I^a0 (absorbance ratio at absorption maximum after/before lightfastness test)” value in data set [3] was determined as 0.86. In addition, in data set [4], the “I^b/I^b0 (absorbance ratio at absorption maximum after/before moisture- and heat-resistances test)” value is reported as 1.00; the “Δλmax(b) (change in absorption maximum wavelength)” value stood at 0.5 nm.
